Data taken from PubChem BioAssay AID1963826 (Molecular Pharmacology Branch, DTP, NCI, 2024).

System: 926638-142-R-J1-PDC complex spheroid viability
Test: Anticancer human tumor 926638-142-R-J1-PDC patient-derived endometrial carcinoma cell line growth inhibition [POLQ]
Settings: for IC50: curve of first compound; for viability, T/C: stronger effect = lower value; active = viability on the fitted dose curve at most 10% of control; inactive = the rest
Summary of the method: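 Patient-derived tumour cells were co-cultured with HUVEC and mesenchymal stem cells as multicellular spheroids at 37 °C. They were treated with POLQ inhibitors (novobiocin, ART-558, RP6685) alone or combined with other agents. Top concentrations were at or near clinical Cmax (otherwise 10 microM; SN-38 at 1 microM), decreasing in half-log steps.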

[1] = second compound 0.0316 µM, first compound 0.0316 µM
[2] = second compound 0.0316 µM, first compound 0.1 µM
[3] = second compound 0.1 µM, first compound 0.0316 µM
[4] = second compound 0.1 µM, first compound 0.1 µM
[5] = second compound 0.316 µM, first compound 0.0316 µM
[6] = second compound 0.316 µM, first compound 0.1 µM
[7] = second compound 1 µM, first compound 0.0316 µM
[8] = second compound 1 µM, first compound 0.1 µM
[9] = second compound 3.16 µM, first compound 0.0316 µM
[10] = second compound 3.16 µM, first compound 0.1 µM
[11] = second compound 10 µM, first compound 0.0316 µM
[12] = second compound 10 µM, first compound 0.1 µM
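Also: spheroids exposed to drugs for one week before readout.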
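For viability, T/C in this document: percent viability relative to DMSO vehicle control wells set as 100%.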

CC[C@@]1(O)C(=O)OCc2c1cc1n(c2=O)Cc2cc3c(CN(C)C)c(O)ccc3nc2-1 + COC1C(OC(N)=O)C(O)C(Oc2ccc3c(O)c(NC(=O)c4ccc(O)c(CC=C(C)C)c4)c(=O)oc3c2C)OC1(C)C
> 0.1 µM: IC50 (second compound 0.0316 µM) | IC50 (second compound 0.316 µM)
0.0661 µM: IC50 (second compound 1 µM)
0.0981 µM: IC50 (second compound 3.16 µM)
0.0865 µM: IC50 (second compound 0.1 µM)
inactive: viability, T/C (second compound 0.0316 µM, first compound 0.000316 µM) 102% | viability, T/C (second compound 0.0316 µM, first compound 0.001 µM) 92.5% | viability, T/C (second compound 0.0316 µM, first compound 0.00316 µM) 85.7% | viability, T/C (second compound 0.0316 µM, first compound 0.01 µM) 72.3% | viability, T/C [1] 70.9% | viability, T/C [2] 47.7% | viability, T/C (second compound 0.1 µM, first compound 0.000316 µM) 80.4% | viability, T/C (second compound 0.1 µM, first compound 0.001 µM) 105% | viability, T/C (second compound 0.1 µM, first compound 0.00316 µM) 80.4% | viability, T/C (second compound 0.1 µM, first compound 0.01 µM) 75.7% | viability, T/C [3] 72.1% | viability, T/C [4] 46.6% | viability, T/C (second compound 0.316 µM, first compound 0.000316 µM) 107% | viability, T/C (second compound 0.316 µM, first compound 0.001 µM) 106% | viability, T/C (second compound 0.316 µM, first compound 0.00316 µM) 77.9% | viability, T/C (second compound 0.316 µM, first compound 0.01 µM) 65.9% | viability, T/C [5] 76.2% | viability, T/C [6] 54.6% | viability, T/C (second compound 1 µM, first compound 0.000316 µM) 83.4% | viability, T/C (second compound 1 µM, first compound 0.001 µM) 70.5% | viability, T/C (second compound 1 µM, first compound 0.00316 µM) 75.8% | viability, T/C (second compound 1 µM, first compound 0.01 µM) 73.2% | viability, T/C [7] 60.8% | viability, T/C [8] 43.5% | viability, T/C (second compound 3.16 µM, first compound 0.000316 µM) 94.2% | viability, T/C (second compound 3.16 µM, first compound 0.001 µM) 93.7% | viability, T/C (second compound 3.16 µM, first compound 0.00316 µM) 82.5% | viability, T/C (second compound 3.16 µM, first compound 0.01 µM) 83.5% | viability, T/C [9] 72.9% | viability, T/C [10] 48.6% | viability, T/C (second compound 10 µM, first compound 0.000316 µM) 84.8% | viability, T/C (second compound 10 µM, first compound 0.001 µM) 88.8% | viability, T/C (second compound 10 µM, first compound 0.00316 µM) 81.1% | viability, T/C (second compound 10 µM, first compound 0.01 µM) 71.1% | viability, T/C [11] 73.8% | viability, T/C [12] 44.2%
0.0795 µM: IC50 (second compound 10 µM)

CC1COCCN1c1cc(-c2ccnn2C)c2ccnc(-c3ccn[nH]3)c2n1 (centres undefined) + COC1C(OC(N)=O)C(O)C(Oc2ccc3c(O)c(NC(=O)c4ccc(O)c(CC=C(C)C)c4)c(=O)oc3c2C)OC1(C)C
active: viability, T/C (second compound 0.0316 µM, first compound 10 µM) 9.13% | viability, T/C (second compound 0.1 µM, first compound 10 µM) 7.32% | viability, T/C (second compound 0.316 µM, first compound 10 µM) 7.15% | viability, T/C (second compound 1 µM, first compound 10 µM) 7.92% | viability, T/C (second compound 3.16 µM, first compound 10 µM) 8.17% | viability, T/C (second compound 10 µM, first compound 10 µM) 9.27%
0.517 µM: IC50 (second compound 0.316 µM)
0.558 µM: IC50 (second compound 10 µM)
0.403 µM: IC50 (second compound 0.1 µM)
0.493 µM: IC50 (second compound 3.16 µM)
0.531 µM: IC50 (second compound 1 µM)
inactive: viability, T/C [1] 111% | viability, T/C [2] 89.4% | viability, T/C (second compound 0.0316 µM, first compound 0.316 µM) 58.2% | viability, T/C (second compound 0.0316 µM, first compound 1 µM) 32.8% | viability, T/C (second compound 0.0316 µM, first compound 3.16 µM) 12.9% | viability, T/C [3] 89.4% | viability, T/C [4] 81.5% | viability, T/C (second compound 0.1 µM, first compound 0.316 µM) 53.2% | viability, T/C (second compound 0.1 µM, first compound 1 µM) 30.9% | viability, T/C (second compound 0.1 µM, first compound 3.16 µM) 11.5% | viability, T/C [5] 107% | viability, T/C [6] 91.6% | viability, T/C (second compound 0.316 µM, first compound 0.316 µM) 68.8% | viability, T/C (second compound 0.316 µM, first compound 1 µM) 25.9% | viability, T/C (second compound 0.316 µM, first compound 3.16 µM) 13.6% | viability, T/C [7] 96.3% | viability, T/C [8] 92.5% | viability, T/C (second compound 1 µM, first compound 0.316 µM) 67.6% | viability, T/C (second compound 1 µM, first compound 1 µM) 28.3% | viability, T/C (second compound 1 µM, first compound 3.16 µM) 11.3% | viability, T/C [9] 90.6% | viability, T/C [10] 80.3% | viability, T/C (second compound 3.16 µM, first compound 0.316 µM) 64.5% | viability, T/C (second compound 3.16 µM, first compound 1 µM) 28.3% | viability, T/C (second compound 3.16 µM, first compound 3.16 µM) 15.1% | viability, T/C [11] 91.5% | viability, T/C [12] 87.6% | viability, T/C (second compound 10 µM, first compound 0.316 µM) 66.8% | viability, T/C (second compound 10 µM, first compound 1 µM) 32.6% | viability, T/C (second compound 10 µM, first compound 3.16 µM) 13.8%
0.455 µM: IC50 (second compound 0.0316 µM)
